Assay results published in patent US20080194467A1, “CANCER TREATMENT METHODS USING CADHERIN ANTAGONISTS IN COMBINATION WITH ANTICANCER AGENTS” (ADHEREX TECHNOLOGIES, INC., priority 2006, published 2008).
Read-outs that look alike come from different tables or passages of the source. Bridge positions count the residues as written; N and C are the ends.

Assays:
[1] = tested on: human melanoma xenografts (DM366 and DM738); assay: Isolated limb infusion (ILI) of melphalan with or without systemic ADH-1 in nude rats bearing human melanoma xenografts; type: in vivo; details: day 60 after 15 minute regional infusion into the hind limb
[2] = tested on: human melanoma cell line DM738; type: in vivo
[3] = tested on: Ovarian Tumor Cell Line A2780; details: paclitaxel 30 mg/kg i.v. qodx5; ADH-1 100 mg/kg i.p. Day 1 then b.i.d.x20
Method: In this set of experiments, 100 mg/kg of ADH-1 was administered i.p. as a single dose on Day 1 and then […].) for the duration of the treatment period. 30 mg/kg paclitaxel was administered i.v. on a qodx5 schedule starting on Day 2. For the combination groups, paclitaxel was always administered 5 minutes after the morning ADH-1 dose.

A375 tumors = assay: In vivo combination therapy of A375 tumors, ADH-1 with temozolomide; details: ADH-1 100 mg/kg i.p. qdx8; TMZ 100 mg/kg p.o. qdx5; administered separately
Method: 100 mg/kg of TMZ was administered p.o. on a qdx5 schedule starting on Day 4. For the combination groups, TMZ was always administered 1 hour after the ADH-1 dose. A375 tumors were resistant to both TMZ and ADH-1 when administered separately.

Q: How did the “increase in tumor volume” value [1] turn out when `N[C@@H](Cc1ccc(N(CCCl)CCCl)cc1)C(=O)O` [melphalan] was run?
A: 439.4%

Q: And the anti-tumor response ([2]; rat, in vivo)?
A: no detectable anti-tumor response

Q: `CC(=O)O[C@H]1C(=O)[C@@]2(C)[C@H]([C@H](OC(=O)c3ccccc3)[C@]3(O)C[C@H](OC(=O)[C@H](O)[C@@H](NC(=O)c4ccccc4)c4ccccc4)C(C)=C1C3(C)C)[C@]1(OC(C)=O)CO[C@@H]1C[C@@H]2O` [paclitaxel] was tested. Which “complete cures out of 10 animals” value [3] did it give?
A: 10%

Q: And the “delay in tumor growth” value [3]?
A: transient delay in tumor growth

Q: With “N—Ac-CHAVC-NH2 (disulfide 1-5 (inferred)) [ADH-1]” as the compound, how does the anti-tumor response ([2]; DM738 tumors, single ILI of melphalan and/or systemic ADH-1, compared to vehicle control) read?
A: no detectable anti-tumor response

Q: What about the “tumor response to treatment (resistance)” value (A375 tumors) of the same compound?
A: resistant
